Source: patent US11564913B2, “Compositions and methods for treating cancer” (Children's Hospital Medical Center, priority 2019, dated 2023)

How the values were obtained:
MCF7 cells = experiment: Cell spreading on fibronectin; format: cell-based; conditions: 30 min exposure, serum-free
Experimental: FIG. 6: IODVA1 inhibits cell-substratum and cell-cell interactions. (A) IODVA1 impedes spreading of MCF7 and MDA-MB-231 cells on fibronectin. MCF7, T47D, and MDA-MB-231 cells were incubated on fibronectin coated coverslips for 10 min, then further incubated with the indicated concentrations of IODVA1 for 30 min in serum-free media, fixed and observed by bright field microscopy. Areas of single cells were calculated from 6 random fields (no less than 300 cells total per treatment group). Results shown are mean±s.e.m. of a single experiment and are representative of three independent experiments. (B) Effects of IODVA1 treatment on spheroid formation in MCF10A, MCF7, T47D, and MDA-MB-231 cells. […] Aggregates and spheroids were dissociated with accutase and trituration, and the number of live cells was determined by trypan blue exclusion. […]
Applicants assessed if IODVA1 interferes with cell spreading on the extracellular matrix, an event that is also governed by the rearrangement of the actin cytoskeleton. […] No changes in the area in T47D cells were detected, although more rounded cells in the presence of IODVA1 were observed.
For cell spreading, MDA-MB-231, MCF7 and T47D were seeded on fibronectin-coated coverslips in serum-free media. […] Six random fields were imaged under 20× objective and cell area of individual cells were quantified to assess the degree of spreading (ImageJ). […]

[1] = test system: murine p190-BCR-ABL leukemic progenitor cells (EGFP+/B220dim); experiment: Cell cycle analysis, BrdU incorporation and flow cytometry; format: cell-based; conditions: for percentage of cells in the G2+M phases: 20 h (SD, N=3)
Experimental: FIG. 13: IODVA1 decreases Rac activation and signaling. (A) Ba/F3 cells expressing p190-BCR-ABL1 were treated with IODVA1 (3 μM) as indicated and levels of active Rac (Rac-GTP) were assessed by pull-down using GST-PAK-GBD, followed by immunoblotting (upper panel) and densitometric quantification (lower panel). (B) Flow-cytometry analysis of pJNK, pS6, p4EBP, pPAK1, and pAKT of Ba/F3 cells expressing Mieg3 empty vector (light and dark blue) or p190-BCR-ABL1 (light and dark salmon) and treated with vehicle control or IODVA1 (3 μM) for 30 min. (C) Representative histogram data of the cell cycle analysis of Ba/F3 cells expressing p190-BCR-ABL and treated with vehicle control or IODVA1 (1, 3, and 10 μM) for 20 h. (D) Quantification of the average number of colonies of bone marrow wild-type (black) and Rac1^Δ/Δ+Rac2^−/− (red) p190-BCR-ABL1 leukemic cells treated with vehicle control or IODVA1 (IO1, 1 μM). ns—not significant, * p<0.05, ** p<0.01, *** p<0.001. (E) As in FIG. 13A, but cells were incubated for a fixed amount of time (1 h) at the indicated IODVA1 concentrations. (F) Ba/F3 cells expressing p190-BCR-ABL1 were treated with IODVA1 (3 μM) and lysed at the indicated times. Cell lysates were separated on SDS-PAGE and immunoblotted for pPAK(T423), pBAD(S136), and BAD. (G) Ba/F3 cells expressing p190-BCR-ABL1 were treated with IODVA1 (3 μM) and levels of active Cdc42 (Cdc42-GTP) and Rho (Rho-GTP) were assessed by pull-down at the indicated times using GST-PAK-GBD and GST-Rhotekin respectively, followed by immunoblotting (left panel) and densitometric quantification (right panel). (H) Morphology of GFP^+ leukemic colonies (left panel). Western blot analysis of Rac1 and Rac2 protein expression in Rac1^Δ/Δ+Rac2^−/− cells post poly-I:C injections (right panel). (I) Intrinsic (blue line) and p50GAP-stimulated GTP-hydrolysis reaction in the presence (red line) or absence (black line) of IODVA1. (J) Sedimentation assay of liposomal Rac1-GDP in the presence of IODVA1 (2 μM). Rac1 was visualized by immunoblotting from pellet (p) and soluble (s) fractions. (K) Stopped-flow measurement of GDI (10 μM) interaction with fluorescently-labelled Rac1 in the absence (black line) or presence (orange line) of IODVA1.
To further test this hypothesis, we analyzed the cell cycle of murine p190-BCR-ABL leukemic progenitor cells (EGFP^+/B220^dim) incubated with vehicle control or IODVA1 (1-10 μM) for 20 h, followed by in vitro BrdU incorporation and flow cytometry analysis (FIG. 13C). […] It increased the percentage of cells in the G2+M phases from 7±1% (SD, N=3) in the presence of vehicle control to 22±6.6, 32±3, and 36±7% (SD, N=3) at 1, 3, and 10 μM, respectively. At 1 μM, it reduced the S-phase 8-fold (p=0.0002) and increased apoptosis by at least 5.3-times (p=0.007). Therefore, IODVA1 induces a G2/M arrest.
Cell cycle was analyzed by using in vitro incorporation of 5-Bromo-2-deoxyuridine using Brdu Flow kit (BD Pharmingen, Cat #552598). Briefly, mice leukemic progenitors were incubated with […] BrdU solution for 45 minutes, cells were further fixed and permeabilized. DNAse treatment was done according to the instructions and stained with anti BrdU and apoptosis was analyzed by 7-AAD staining through flow cytometry analysis.

OC1(c2ccccn2)N=C(Nc2nc3ccccc3[nH]2)N=C1c1ccccn1 (stereo not shown) [IODVA1, (Z)-2-((1H-benzo[d]imidazol-2-yl)imino)-4,5-di(pyridin-2-yl)-2,5-dihydro-1H-imidazol-5-ol]
concentration at which spreading is interfered with (decrease in cell area) (MCF7 cells): 0.3 µM
percentage of cells in the G2+M phases ([1]; 1 μM, vehicle 7±1%): 22±6.6%
reduction of the S-phase ([1]; 1 μM, p=0.0002): 8 fold
increase in apoptosis ([1]; 1 μM, p=0.007): at least 5.3 times
percentage of cells in the G2+M phases ([1]; 3 μM): 32±3%
percentage of cells in the G2+M phases ([1]; 10 μM): 36±7%
G0+G1 phase ([1]; 1-10 μM, 20 h): did not affect
